The values that follow come from patent US20140135310A1, “SULPHONAMIDE DERIVATIVES OF ALICYCLIC AMINES FOR THE TREATMENT OF CENTRAL NERVOUS SYSTEM DISEASES” (Adamed Sp. z o.o., priority 2011, published 2014).

Structures are written as SMILES.

Test [1] addresses T1, serotonin transporter (SERT) (Homo sapiens, UniProt P31645).
T1 construct: expressed in transfected cells; host or cells: CHO cells
Nature of the test: Radioligand binding assay, serotonin transporter (SERT). The note with it: binding assay, test compound 1×10^−6 M. The method in brief: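 Radioligand competition binding with scintillation detection; specific binding is total minus binding under excess unlabelled ligand. Reported as % of control specific binding or % inhibition; IC50 from Hill-equation non-linear regression of competition curves, and Ki via Cheng-Prusoff using radioligand concentration and Scatchard-derived KD.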

The target in the next test is T2, 5-HT2A receptor (Homo sapiens, UniProt P28223).
T2 construct: purchased PerkinElmer
The test is described as follows: Radioligand binding assay, serotoninergic 5-HT2A receptors. The settings on record: binding assay result in %, Table 5a. The method in brief: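 Radioligand competition binding with scintillation counting; nonspecific binding defined by excess unlabelled ligand. Data as percent inhibition of control specific binding. IC50 by Hill-equation fit of competition curves; Ki by Cheng-Prusoff, with radioligand Kd from Scatchard plot.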

In another test the target is T3, 5-HT7 receptor (Homo sapiens, UniProt P34969).
T3 construct: purchased PerkinElmer
Nature of the test: Radioligand binding assay, serotoninergic 5-HT7 receptors. The settings on record: binding assay result in %, Table 5a. The method in brief: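 Competition binding at human 5-HT7 receptors with a radioligand, detected by scintillation counting; non-specific binding was defined with excess unlabelled ligand. IC50 came from Hill-equation fits of competition curves, and Ki from Cheng–Prusoff using radioligand concentration and Scatchard-derived KD.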

Test [2] addresses dopaminergic receptors D2 (Homo sapiens, UniProt P14416). Nature of the test: Radioligand binding assay, dopaminergic D2 receptors. The note with it: binding assay, test compound 1×10^−6 M. The essentials: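 Radioligand displacement was measured by scintillation counting, with non-specific binding defined in the presence of excess unlabelled ligand. Competition curves were fitted to the Hill equation to give IC50, and Ki was derived by the Cheng–Prusoff equation.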

In test [3] the test system is α1 adrenergic receptors (rat cerebral cortex). Nature of the test: Radioligand binding assay, adrenergic α1 receptors. The note with it: test compound 1×10^−6 M. The essentials:
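Values derive from radioligand displacement, with non-specific binding defined by excess cold ligand and detection by scintillation. Hill-fit IC50s were converted to Ki via Cheng-Prusoff using Scatchard-derived Kd; percent inhibition of control specific binding also reported.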

The target in test [4] is dopaminergic receptors D3 (Homo sapiens, UniProt P35462). Nature of the test: Radioligand binding assay, dopaminergic D3 receptors. The settings on record: test compound 1×10^−6 M. The essentials:
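Competition radioligand binding at human D2, D3 and D4.4 receptors, detected by scintillation counting; nonspecific binding defined with excess unlabelled ligand. Results as percent inhibition of control specific binding; IC50 by Hill-equation nonlinear regression; Ki via Cheng-Prusoff, with radioligand KD from Scatchard plot.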

In test [5] the target is T4, 5-HT1A receptor (rat hippocampus) (Rattus norvegicus, UniProt P19327).
T4 construct: hippocampus; from tissue; host or cells: rat hippocampus
T4 sequence (P19327 1-422): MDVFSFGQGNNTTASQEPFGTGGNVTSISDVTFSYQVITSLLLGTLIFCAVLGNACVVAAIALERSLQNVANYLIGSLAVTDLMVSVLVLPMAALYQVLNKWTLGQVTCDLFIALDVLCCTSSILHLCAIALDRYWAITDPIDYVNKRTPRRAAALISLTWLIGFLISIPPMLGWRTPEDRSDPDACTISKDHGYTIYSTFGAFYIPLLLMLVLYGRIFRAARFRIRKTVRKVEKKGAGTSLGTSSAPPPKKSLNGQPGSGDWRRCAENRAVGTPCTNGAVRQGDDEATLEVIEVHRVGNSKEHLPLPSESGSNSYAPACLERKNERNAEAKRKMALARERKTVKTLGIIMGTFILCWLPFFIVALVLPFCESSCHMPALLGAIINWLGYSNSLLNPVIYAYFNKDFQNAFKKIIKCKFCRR
Nature of the test: Radioligand binding assay, serotoninergic 5-HT1A receptors. The settings on record: binding assay result in %, Table 5a.

In a further test the target is T5, 5-HT6 receptor (Homo sapiens, UniProt P50406).
T5 construct: purchased PerkinElmer
Nature of the test: Radioligand binding assay, serotoninergic 5-HT6 receptors. The settings on record: binding assay result in %, Table 5a. The essentials: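 Values are Ki from Cheng–Prusoff, taking IC50 from Hill nonlinear regression of competition curves and KD from a Scatchard plot. Specific binding was total minus binding with excess unlabelled ligand. Radioligand displacement was detected by scintillation counting, and data were also reported as percent of control specific binding.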

Sequence of dopaminergic receptors D2 (P14416 whole entry): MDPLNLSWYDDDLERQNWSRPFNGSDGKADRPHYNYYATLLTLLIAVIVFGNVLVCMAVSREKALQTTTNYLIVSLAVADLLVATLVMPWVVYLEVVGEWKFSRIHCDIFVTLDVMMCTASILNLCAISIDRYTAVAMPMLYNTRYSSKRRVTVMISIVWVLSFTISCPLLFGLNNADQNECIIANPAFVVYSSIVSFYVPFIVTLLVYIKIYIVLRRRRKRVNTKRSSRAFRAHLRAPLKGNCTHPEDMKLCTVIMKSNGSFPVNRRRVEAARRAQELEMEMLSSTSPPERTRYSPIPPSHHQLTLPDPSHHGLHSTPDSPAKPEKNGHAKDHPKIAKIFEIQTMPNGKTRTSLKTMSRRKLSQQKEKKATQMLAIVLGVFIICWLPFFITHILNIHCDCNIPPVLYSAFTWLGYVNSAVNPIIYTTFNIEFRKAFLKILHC
T1 sequence (P31645 whole entry): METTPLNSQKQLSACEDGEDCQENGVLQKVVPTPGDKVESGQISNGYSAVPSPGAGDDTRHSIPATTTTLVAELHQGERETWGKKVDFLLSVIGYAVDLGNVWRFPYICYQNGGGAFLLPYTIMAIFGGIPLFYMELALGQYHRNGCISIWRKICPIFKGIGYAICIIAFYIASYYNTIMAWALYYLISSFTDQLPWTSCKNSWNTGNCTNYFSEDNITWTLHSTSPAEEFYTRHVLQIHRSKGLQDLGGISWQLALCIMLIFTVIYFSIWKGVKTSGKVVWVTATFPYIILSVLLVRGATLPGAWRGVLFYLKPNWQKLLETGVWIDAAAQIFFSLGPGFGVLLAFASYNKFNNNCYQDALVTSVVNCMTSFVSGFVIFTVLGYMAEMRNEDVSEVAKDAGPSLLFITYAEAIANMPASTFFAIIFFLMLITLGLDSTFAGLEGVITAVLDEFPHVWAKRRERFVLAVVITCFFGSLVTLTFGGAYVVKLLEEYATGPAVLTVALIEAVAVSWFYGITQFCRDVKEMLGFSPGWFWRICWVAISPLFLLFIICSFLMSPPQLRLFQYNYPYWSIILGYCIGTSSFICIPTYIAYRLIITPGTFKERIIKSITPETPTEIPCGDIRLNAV
T5 sequence (P50406 whole entry): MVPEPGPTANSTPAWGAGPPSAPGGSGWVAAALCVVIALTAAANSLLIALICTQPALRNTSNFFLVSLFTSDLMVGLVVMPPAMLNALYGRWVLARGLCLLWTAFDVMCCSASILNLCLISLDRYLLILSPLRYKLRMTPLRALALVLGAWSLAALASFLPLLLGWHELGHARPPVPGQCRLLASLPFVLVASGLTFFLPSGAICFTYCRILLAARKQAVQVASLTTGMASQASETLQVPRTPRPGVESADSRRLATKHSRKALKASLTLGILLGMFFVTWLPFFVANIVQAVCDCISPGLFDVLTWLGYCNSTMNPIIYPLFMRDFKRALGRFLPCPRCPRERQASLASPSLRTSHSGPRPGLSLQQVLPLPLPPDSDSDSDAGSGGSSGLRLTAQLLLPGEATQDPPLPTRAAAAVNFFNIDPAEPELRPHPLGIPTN
T3 sequence (P34969 whole entry): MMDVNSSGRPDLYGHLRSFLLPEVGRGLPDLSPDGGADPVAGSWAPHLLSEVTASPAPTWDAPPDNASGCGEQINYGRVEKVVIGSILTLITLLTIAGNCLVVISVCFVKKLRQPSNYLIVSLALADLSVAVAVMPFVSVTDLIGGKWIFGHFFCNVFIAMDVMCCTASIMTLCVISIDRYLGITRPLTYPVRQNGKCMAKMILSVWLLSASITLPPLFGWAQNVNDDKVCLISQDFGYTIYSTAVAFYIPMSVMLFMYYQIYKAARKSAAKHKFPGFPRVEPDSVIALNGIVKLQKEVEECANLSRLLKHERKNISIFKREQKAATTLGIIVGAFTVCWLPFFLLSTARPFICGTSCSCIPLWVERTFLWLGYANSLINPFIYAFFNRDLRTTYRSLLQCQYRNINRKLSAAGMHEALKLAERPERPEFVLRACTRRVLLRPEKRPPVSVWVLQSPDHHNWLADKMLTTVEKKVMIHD
Sequence of dopaminergic receptors D3 (P35462 whole entry): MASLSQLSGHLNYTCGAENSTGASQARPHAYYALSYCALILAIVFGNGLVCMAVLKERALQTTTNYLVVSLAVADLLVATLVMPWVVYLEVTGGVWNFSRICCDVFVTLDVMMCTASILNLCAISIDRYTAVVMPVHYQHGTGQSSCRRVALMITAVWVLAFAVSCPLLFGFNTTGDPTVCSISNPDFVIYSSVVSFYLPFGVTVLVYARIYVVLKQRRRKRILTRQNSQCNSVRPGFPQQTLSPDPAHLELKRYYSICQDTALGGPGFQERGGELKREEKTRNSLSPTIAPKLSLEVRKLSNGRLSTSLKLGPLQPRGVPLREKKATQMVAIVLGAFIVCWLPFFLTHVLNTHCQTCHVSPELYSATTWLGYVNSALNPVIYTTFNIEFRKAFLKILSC
T2 sequence (P28223 whole entry): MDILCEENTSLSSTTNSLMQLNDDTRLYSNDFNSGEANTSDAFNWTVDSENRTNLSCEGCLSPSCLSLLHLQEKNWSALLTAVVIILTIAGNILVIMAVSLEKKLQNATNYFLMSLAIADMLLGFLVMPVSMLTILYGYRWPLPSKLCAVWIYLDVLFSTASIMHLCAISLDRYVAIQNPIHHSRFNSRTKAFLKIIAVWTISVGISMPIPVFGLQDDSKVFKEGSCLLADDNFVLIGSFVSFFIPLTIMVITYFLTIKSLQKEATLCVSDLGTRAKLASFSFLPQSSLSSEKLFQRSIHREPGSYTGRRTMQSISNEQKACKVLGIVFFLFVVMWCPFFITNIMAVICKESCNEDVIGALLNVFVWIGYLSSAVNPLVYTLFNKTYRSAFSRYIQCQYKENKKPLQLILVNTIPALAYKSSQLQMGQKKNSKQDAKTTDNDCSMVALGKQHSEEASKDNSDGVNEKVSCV

On to `O=S(=O)(NC1CCN(CCOc2cccc3c2OCCO3)C1)c1ccc2ccccc2c1` (centres unmarked) [Compound 99, N-[1-[2-(2,3-Dihydro-1,4-benzodioxan-8-yloxy)ethyl]pyrrolidin-3-yl]-naphthalene-2-sulphonamide], for which, in test [1], the “SERT [%]” value came to 36%. Also, the “5-HT2A [%]” value at 5-HT2A receptor was 97%. Also, the “5-HT7 [%]” value at 5-HT7 receptor came to 90%. In test [2], the “D2 [%]” value is recorded as 38%. In test [3], the “α1 [%]” value turned out to be 70%. Moreover, in test [4], the “D3 [%]” value is given as 78%. Further, in test [5], the “5-HT1A [%]” value turned out to be 96%. The “5-HT6 [%]” value at 5-HT6 receptor was found to be 64%.

For `O=S(=O)(NC1CCN(CCOc2cccc3c2OCCO3)CC1)c1cccc2ccccc12` [Compound 100, N-[1-[2-(2,3-dihydro-1,4-benzodioxan-8-yloxy)ethyl]-4-piperidine]-naphthalene-1-sulphonamide], the “SERT [%]” value in test [1] was 57%. Further, the “5-HT2A [%]” value at 5-HT2A receptor was 97%. Moreover, the “5-HT7 [%]” value on 5-HT7 receptor is 103%. The “D2 [%]” value in test [2] is 41%. Besides, the “α1 [%]” value in test [3] turned out to be 87%. Also, the “D3 [%]” value in test [4] came to 74%. The “5-HT1A [%]” value in test [5] is given as 94%. Besides, the “5-HT6 [%]” value at 5-HT6 receptor worked out at 28%.

By inhibition is commonly meant the change of the read-out against control, counted positive when it falls. Consider `CC1(C)Cc2cccc(OCCN3CCC(CNS(=O)(=O)c4cccc(O)c4)C3)c2O1` (centres unmarked) [Compound 113, N-[[1-[2-[(2,2-Dimethyl-3H-benzofuran-7-yl)oxy]ethyl]pyrrolidin-3-yl]methyl]-3-hydroxy-benzenesulphonamide], for which the inhibition at 1 µM in test [1] was determined as 18%; on 5-HT2A receptor it was 65%; on 5-HT7 receptor, 85%; in test [2], 47%; in test [4] it was 55%; in test [5], 81%. The inhibition at 1 µM at 5-HT6 receptor was found to be 52%. Moreover, in test [3], the “α1 [%]” value was 55%.

As to `CC1(C)Cc2cccc(OCCN3CCC(CNS(=O)(=O)c4ccc5ccccc5c4)C3)c2O1` (centres unmarked) [Compound 114, N-[[1-[2-[(2,2-Dimethyl-3H-benzofuran-7-yl)oxy]ethyl]pyrrolidin-3-yl]methyl]naphthalene-2-sulphonamide], the inhibition at 1 µM was 5% in test [1]; 90% at 5-HT2A receptor; 97% on 5-HT7 receptor; 49% in test [2]; 62% in test [4]; 98% in test [5]. The inhibition at 1 µM on 5-HT6 receptor was 56%. The “α1 [%]” value in test [3] was determined as 27%.

With `O=S(=O)(NC1CCN(CCOc2cccc3c2OCCO3)CC1)c1ccccc1` [Compound 117, N-[1-[2-(2,3-Dihydro-1,4-benzodioxan-8-yloxy)ethyl]-4-piperidine]-benzenesulphonamide], the “SERT [%]” value in test [1] was 33%. Besides, the “5-HT2A [%]” value on 5-HT2A receptor is on record as 86%. In addition, at 5-HT7 receptor, the “5-HT7 [%]” value was determined as 93%. Also, the “D2 [%]” value in test [2] came out at 24%. Besides, the “α1 [%]” value in test [3] is reported as 53%. Also, the “D3 [%]” value in test [4] amounted to 29%. Also, the “5-HT1A [%]” value in test [5] was determined as 76%. Also, the “5-HT6 [%]” value on 5-HT6 receptor was 34%.

With `Cc1cccc(S(=O)(=O)NC2CCN(CCOc3cccc4c3OCCO4)CC2)c1` [Compound 118, N-[1-[2-(2,3-Dihydro-1,4-benzodioxan-8-yloxy)ethyl]-4-piperidine]-3-methyl-benzenesulphonamide], in test [1], the “SERT [%]” value was 41%. For the same compound, at 5-HT2A receptor, the “5-HT2A [%]” value was determined as 83%. Moreover, at 5-HT7 receptor, the “5-HT7 [%]” value was 99%. Also, the “D2 [%]” value in test [2] is given as 32%. The “α1 [%]” value in test [3] was determined as 72%. The “D3 [%]” value in test [4] amounted to 20%. In addition, the “5-HT1A [%]” value in test [5] is 85%. Moreover, the “5-HT6 [%]” value on 5-HT6 receptor is 51%.

Turning to `O=S(=O)(NC1CCN(CCOc2cccc3ccccc23)CC1)c1cccc(O)c1` [Compound 119, 3-Hydroxy-N-[1-[2-(1-naphthyloxy)ethyl]-4-piperidine]benzene-sulphonamide], the “SERT [%]” value in test [1] is on record as 10%. Besides, the “5-HT2A [%]” value at 5-HT2A receptor turned out to be 69%. Moreover, at 5-HT7 receptor, the “5-HT7 [%]” value came to 85%. Moreover, the “D2 [%]” value in test [2] worked out at 79%. Also, the “α1 [%]” value in test [3] was determined as 78%. Also, the “D3 [%]” value in test [4] is recorded as 93%. Moreover, in test [5], the “5-HT1A [%]” value is 89%. Also, the “5-HT6 [%]” value on 5-HT6 receptor is 57%.

Turning to `O=S(=O)(NC1CCN(CCOc2cccc3ccccc23)CC1)c1ccc2ccccc2c1` [Compound 120, N-[1-[2-(1-Naphthyloxy)ethyl]-4-piperidine]naphthalene-2-sulphonamide], the “SERT [%]” value in test [1] is 21%. The “5-HT2A [%]” value on 5-HT2A receptor was determined as 68%. In addition, the “5-HT7 [%]” value at 5-HT7 receptor was 89%. In addition, the “D2 [%]” value in test [2] is −33%. Besides, in test [3], the “α1 [%]” value is recorded as −9%. Also, the “D3 [%]” value in test [4] is recorded as 30%. In addition, the “5-HT1A [%]” value in test [5] came out at 8%. For the same compound, the “5-HT6 [%]” value on 5-HT6 receptor turned out to be 24%.

As to `O=S(=O)(NCC1CCN(CCOc2cccc3ccccc23)C1)c1cccc(O)c1` (centres unmarked) [Compound 123, 3-Hydroxy-N-[[1-[2-(1-naphthyloxy)ethyl]pyrrolidin-3-yl]methyl]-benzenesulphonamide], the inhibition at 1 µM in test [1] turned out to be 83%; at 5-HT2A receptor, 64%; at 5-HT7 receptor it was 88%; in test [2], 38%; in test [4], 86%; in test [5], 99%. Moreover, the inhibition at 1 µM on 5-HT6 receptor was 72%. The “α1 [%]” value in test [3] came out at 43%.

As to `Cn1ccc2cc(S(=O)(=O)NCC3CN(CCCc4noc5cc(F)ccc45)C3)ccc21` [Compound 150, N-[[1-[3-(6-Fluoro-1,2-benzoxazol-3-yl)propyl]azetidin-3-yl]methyl]-1-methyl-indole-5-sulphonamide], the inhibition at 1 µM in test [1] is 12%; on 5-HT2A receptor, 85%; at 5-HT7 receptor, 84%; in test [2], 53%; in test [4], 60%; in test [5], -9%. On 5-HT6 receptor, the inhibition at 1 µM is 65%. In test [3], the “α1 [%]” value is listed as 98%.

On to `O=S(=O)(NCC1CN(CCCc2c[nH]c3ccc(F)cc23)C1)c1ccc2ccccc2c1` [Compound 160, N-[[1-[3-(5-Fluoro-1H-indol-3-yl)propyl]azetidin-3-yl]methyl]naphthalene-2-sulphonamide], for which the inhibition at 1 µM turned out to be 100% in test [1]; 97% on 5-HT2A receptor; 75% on 5-HT7 receptor; 86% in test [2]; 87% in test [4]; 76% in test [5]. In addition, the inhibition at 1 µM on 5-HT6 receptor came out at 83%. Also, the “α1 [%]” value in test [3] amounted to 49%.

With `O=S(=O)(NCC1CN(CCCc2c[nH]c3ccc(Cl)cc23)C1)c1ccc2ccccc2c1` [Compound 161, N-[[1-[3-(5-Chloro-1H-indol-3-yl)propyl]azetidin-3-yl]methyl]naphthalene-2-sulphonamide], the inhibition at 1 µM stood at 66% in test [1]; 88% at 5-HT2A receptor; 83% at 5-HT7 receptor; 84% in test [2]; 75% in test [4]; 86% in test [5]. The inhibition at 1 µM on 5-HT6 receptor was determined as 87%. Further, in test [3], the “α1 [%]” value is listed as 46%.

On to `O=S(=O)(NCC1CN(CCOc2nsc3ccccc23)C1)c1ccc2ccccc2c1` [Compound 162, N-[[1-[2-(1,2-Benzothiazol-3-yloxy)ethyl]azetidin-3-yl]methyl]-naphthalene-2-sulphonamide], for which the inhibition at 1 µM in test [1] is -9%; on 5-HT2A receptor, -17%; on 5-HT7 receptor it was 91%; in test [2], 61%; in test [4] it was 100%; in test [5], 85%. For the same compound, the inhibition at 1 µM on 5-HT6 receptor is -56%. Moreover, the “α1 [%]” value in test [3] stood at 83%.
